“Also recorded” adds a separate entry of the source.
Assays:
[1] = tested on: 2D-cultured midbrain dopaminergic (mDA) neurons; experiment: Viability of 2D-cultured mDA neurons (CellTiter-Glo 2.0) in the 2D vs 3D comparison; format: cell-based; conditions: Homo sapiens, Neuron, 2D mDA neurons, 48 h exposure from day 50
Description: To compare the toxic effects of compounds on AMOs and 2D-cultured midbrain dopaminergic neurons, we seeded and cultured both in parallel and generated them from the same smNPC starting cell population. For 2D dopaminergic neuron differentiation, smNPCs were seeded in 1% (v/v in KO-DMEM/F-12) Matrigel-coated 6-well plates and standard smNPC medium, following digestion by accutase as described above. From day 2 onwards, they were treated identically with the AMOs (i.e., they received the same media at the same timepoints). To work with the 2D dopaminergic neurons in a screening setting (and have the same plate format as the AMOs), we reseeded them to flat-bottom 96-well plates (“μCLEAR”, black, Greiner) at a density of 70,000 cells/well on day 48. On day 49, the medium of both 2D mDA neurons and 3D AMOs was exchanged to tox medium. The next day, we treated them with different concentrations (0.01, 0.1, 1, 10, 50, 100, 200, 500, and 1,000 μM; controls received the corresponding solvent at an amount equivalent to the highest compound concentration; n = 6 per concentration) of the compounds lindane (Sigma-Aldrich, in ethanol) and 6-hydroxydopamine hydrochloride (Sigma Aldrich, in DMSO) in tox medium. After 48 h of incubation, we measured the samples’ viability. For the AMOs, we used the CellTiter-Glo 3D cell viability assay as described above. We measured the 2D mDA neuron viability with the CellTiter-Glo 2.0 cell viability assay (Promega) according to the manufacturer’s instructions. In short, we brought the sample plates and reagents to room temperature for 30 min. We adjusted the media volume of the samples to 50 μl and added an equal volume (50 μl) of the CellTiter-Glo 2.0 reagent. We let the plate shake for 2 min at 900 rpm on a Thermomixer and then incubated them for 10 min at room temperature and protected from light. Immediately afterward, we measured the luminescence on a Synergy Mx plate reader. We outputted the results to Microsoft Excel and GraphPad Prism v9.0.1 for reformatting, plotting, and analysis. Data processing was performed as outlined for the CellTiter-Glo 3D-based viability assay above, except for the averaging of technical replicates, as measurements were performed directly in the culture plate without additional technical replicates.
All other data analysis steps including the statistical analysis to identify significant differences in toxicity between 2D and 3D (via multiple unpaired t-tests with the same parameters as above, corrected for using the Bonferroni-Dunn method, and considering padj <0.05 as significant), as well as dose-response curve fitting, were performed as described in detail above. The IC50 values were taken from the same regression/analysis as the dose-response curves.

[2] = tested on: automated midbrain organoids (AMOs); experiment: Viability of 3D AMOs (CellTiter-Glo 3D) in the 2D vs 3D comparison; format: cell-based, human; conditions: for IC50: Homo sapiens, 48 h exposure from day 50
Description: We cultured AMOs for 47 days in our automated system as described above. On day 47, we exchanged the organoid medium to a minimal tox medium (TM, consisting of DMEM/F-12 with 1% N2 supplement and 1% penicillin/streptomycin/glutamine) to reduce possible interference from antioxidants in the B27 media supplement. The next day, we treated the AMOs with the compounds from the library at a concentration of 100 μM in TM with some deviations due to solubility (see Supplementary Table 1 for a complete list of compounds including their final concentrations in the screen). DMSO control samples contained 0.5% (v/v) DMSO, which is equivalent to the amount of solvent in the samples that received compound treatment. After 48 h of incubation with the compounds, we either directly processed the organoids for the 48-h time point or renewed the compounds in TM once to achieve 96 h of incubation. Following either 48 or 96 h of compound incubation, we used the CellTiter-Glo 3D cell viability assay (Promega) to measure the viability of individual organoids, as previously described (Renner et al., [2020]). Briefly, the 96-well plates of AMOs and the reagents were brought to room temperature for 30 min. We adjusted the media volume of each well to 55 μl and added an equal volume (55 μl) of the CellTiter-Glo 3D reagent. Next, the samples were shaken on a Thermomixer (Eppendorf) at 900 rpm for 5 min and then incubated for 25 min at room temperature while protected from light. To minimize signal cross-talk between adjacent wells, we transferred the contents of the clear 96-well culture plates to white/opaque 384-well Lumitrac plates (Greiner) with two technical replicates (20 μl each) per sample, after the incubation. We recorded the luminescence immediately after the transfer using a Synergy Mx plate reader (BioTek). We outputted the results to Microsoft Excel for reformatting and then transferred them to GraphPad Prism v9.0.1 (Graphpad Software, Inc.) for plotting and statistical analysis.
To compare the toxic effects of compounds on AMOs and 2D-cultured midbrain dopaminergic neurons, we seeded and cultured both in parallel and generated them from the same smNPC starting cell population. For 2D dopaminergic neuron differentiation, smNPCs were seeded in 1% (v/v in KO-DMEM/F-12) Matrigel-coated 6-well plates and standard smNPC medium, following digestion by accutase as described above. From day 2 onwards, they were treated identically with the AMOs (i.e., they received the same media at the same timepoints). To work with the 2D dopaminergic neurons in a screening setting (and have the same plate format as the AMOs), we reseeded them to flat-bottom 96-well plates (“μCLEAR”, black, Greiner) at a density of 70,000 cells/well on day 48. On day 49, the medium of both 2D mDA neurons and 3D AMOs was exchanged to tox medium. The next day, we treated them with different concentrations (0.01, 0.1, 1, 10, 50, 100, 200, 500, and 1,000 μM; controls received the corresponding solvent at an amount equivalent to the highest compound concentration; n = 6 per concentration) of the compounds lindane (Sigma-Aldrich, in ethanol) and 6-hydroxydopamine hydrochloride (Sigma Aldrich, in DMSO) in tox medium. After 48 h of incubation, we measured the samples’ viability. For the AMOs, we used the CellTiter-Glo 3D cell viability assay as described above. We measured the 2D mDA neuron viability with the CellTiter-Glo 2.0 cell viability assay (Promega) according to the manufacturer’s instructions. In short, we brought the sample plates and reagents to room temperature for 30 min. We adjusted the media volume of the samples to 50 μl and added an equal volume (50 μl) of the CellTiter-Glo 2.0 reagent. We let the plate shake for 2 min at 900 rpm on a Thermomixer and then incubated them for 10 min at room temperature and protected from light. Immediately afterward, we measured the luminescence on a Synergy Mx plate reader. […]

[3] = tested on: automated midbrain organoids (AMOs); experiment: Dose-response analysis, ATP-based overall AMO viability; format: cell-based, human; conditions: 48 h + 6 days; for viability: 0.01-1,000 μM (rotenone up to 100 μM), both AMO lines
Description: AMOs were cultured as described above for 47 days. On day 47, we exchanged their medium to tox medium (TM), initially without the addition of any compounds. […] For each compound, we included n = 8 controls per compound treated with the corresponding solvent at an amount equivalent to the highest compound concentration. To assess viability and cell type-specific toxicity in parallel and under the same conditions, we treated all samples with the compounds for 48 h, then exchanged their medium to standard culture medium without compounds and maintained them for an additional 6 days before analysis to allow breakdown and removal of cellular debris. Organoid viability and cell type-specific toxicity were analyzed as described for the primary screens. Here, we acquired five confocal planes spaced 36.6 μm apart in our Operetta high content imager. The image analysis of the AMOs for cell type-specific toxicity assessment required minor adjustments to account for the individual properties of the staining. […] For Map2, we performed Gaussian smoothing with a width of 10 px and omitted the additional sliding parabola filter. The other steps were performed as outlined for the primary cell-type-specific toxicity screen. […] In detail: The dose-response series, including the individual solvent controls, was performed for every compound on a separate 96-well plate of AMOs with initially n = 8 organoids per concentration. […] Data processing, including normalizations, was performed for each individual compound/plate as outlined above for the primary screens. Significant differences between the Map2 and TH content were also determined in GraphPad Prism as described for the primary screen and with the same parameters (multiple comparisons were performed for the different concentrations instead of compounds).

[4] = tested on: TH+ dopaminergic and Map2+ general neurons in AMOs; experiment: Dose-response analysis, TH and Map2 content by high content imaging; format: cell-based, human; conditions: 48 h + 6 days; for Map2 content (general neurons) / TH content (dopaminergic neurons): 0.01-1,000 μM (rotenone up to 100 μM), both AMO lines; for TH levels compared to Map2 levels: dose-response, padj < 0.05
Description: All processing steps were conducted in an HTS-compatible automated liquid handling system (ALHS, a Biomek FXP liquid handling station). To quantify different cellular subpopulations within the AMOs, we employed our previously described (Renner et al., [2020], [2021b]) ALHS-compatible workflow for combined whole-mount staining and clearing, with minor modifications. We fixed the AMOs with 4% PFA (VWR) for 10–15 min and stained the entire aggregates with primary and secondary antibodies for 6 days each. The antibodies used in this study were as follows. Primary: mouse anti-Map2 (1:1,000, Merck Millipore, cat#: MAB3418) and rabbit anti-TH (1:500, Abcam, cat#: ab112). Secondary: donkey anti-mouse IgG, Alexa Fluor 488 conjugated (1:1,000, Thermo Fisher, cat#: A-21202) and donkey anti-rabbit IgG, Alexa Fluor 647 conjugated (1:1,000, Thermo Fisher, cat#: A-31573). The antibodies were diluted in blocking and permeabilization solution consisting of 6% BSA, 0.5% Triton-X 100 (Roth), 0.1% (w/v) sodium azide (Sigma-Aldrich) in PBS (Sigma-Aldrich) and immediately added after fixation following a triple rinse with PBS. We renewed the antibody solutions once after three days. As a nuclear counter stain, we added DAPI (1 μg/ml, Sigma-Aldrich) to the solution containing the secondary antibodies. Between primary and secondary antibody application and after finishing the secondary antibody incubation, we washed the samples overnight with 0.1% Triton X-100 in PBS, with a total of five exchanges of the washing solution. After the whole-mount staining, we performed BABB-based tissue clearing (Dent et al., [1989]) to allow image acquisition with single-cell resolution of the entire aggregates. For this purpose, we first dehydrated the AMOs via a stepwise methanol (Roth) series (25%, 50%, 70%, 90%, and 100%, each for 15 min). For clearing and imaging, we transferred them to organic solvent-resistant cyclo-olefin 96-well flat-bottom plates (“Screenstar”, Greiner Bio-One). Finally, we incubated the samples for 30 min in 1:1 (v/v) methanol/BABB (BABB consisted of benzyl alcohol (Sigma-Aldrich) and benzyl benzoate (Sigma-Aldrich) at a 1:1 (v/v) ratio) and then kept them in 100% BABB in the dark for storage and subsequent automated high content confocal fluorescent analysis.
We prepared and treated the AMOs with the compounds as described for the primary viability screen. On day 50, after 48 h of compound incubation, we replaced the medium with standard AMO medium and maintained the AMOs for 6 additional days under standard culture conditions. This additional time allows the cells killed by the compounds to be cleared from the aggregates. After the 6 days, we fixed the organoids with 4% PFA, whole-mount-stained them for TH and Map2, and tissue-cleared them as described above. To achieve uniform aggregate positioning within the wells before imaging, we tilted the plates off the horizontal plane at 60 degrees for a minimum of 5 min. We performed automated image acquisition of entire 96-well plates on an Operetta high content imager (Perkin Elmer) and analyzed images in the Harmony 4.1 software and/or Columbus version 2.6.0 as previously described (Renner et al., [2020]), with adjustments to account for the individual properties of the staining and samples. We acquired three medial planes for each organoid, spaced 36.6 μm apart to avoid double-sampling individual morphological features. For the analysis, we defined the organoid region in each image by summing all channels, removed small localized features with a median filter (10 px), and identified putative organoids/regions of interest (ROIs) with the “find image region” function. To identify bona fide AMOs and exclude image artifacts and dust, we selected the ROIs with an area >9,000 μm^2, roundness >0.4, and mean DAPI intensity >190 arbitrary brightness units (abu).

[5] = tested on: TH+ dopaminergic and Map2+ general neurons in AMOs; experiment: Primary cell-type-specific toxicity screen (whole-mount TH/Map2 staining, high content imaging); format: cell-based, human; conditions: approx. 100 μM, 48 h + 6 days, shared between both AMO lines, padj < 0.05
Description: All processing steps were conducted in an HTS-compatible automated liquid handling system (ALHS, a Biomek FXP liquid handling station). To quantify different cellular subpopulations within the AMOs, we employed our previously described (Renner et al., [2020], [2021b]) ALHS-compatible workflow for combined whole-mount staining and clearing, with minor modifications. We fixed the AMOs with 4% PFA (VWR) for 10–15 min and stained the entire aggregates with primary and secondary antibodies for 6 days each. The antibodies used in this study were as follows. Primary: mouse anti-Map2 (1:1,000, Merck Millipore, cat#: MAB3418) and rabbit anti-TH (1:500, Abcam, cat#: ab112). Secondary: donkey anti-mouse IgG, Alexa Fluor 488 conjugated (1:1,000, Thermo Fisher, cat#: A-21202) and donkey anti-rabbit IgG, Alexa Fluor 647 conjugated (1:1,000, Thermo Fisher, cat#: A-31573). The antibodies were diluted in blocking and permeabilization solution consisting of 6% BSA, 0.5% Triton-X 100 (Roth), 0.1% (w/v) sodium azide (Sigma-Aldrich) in PBS (Sigma-Aldrich) and immediately added after fixation following a triple rinse with PBS. We renewed the antibody solutions once after three days. As a nuclear counter stain, we added DAPI (1 μg/ml, Sigma-Aldrich) to the solution containing the secondary antibodies. Between primary and secondary antibody application and after finishing the secondary antibody incubation, we washed the samples overnight with 0.1% Triton X-100 in PBS, with a total of five exchanges of the washing solution. […]
We prepared and treated the AMOs with the compounds as described for the primary viability screen. […] We performed automated image acquisition of entire 96-well plates on an Operetta high content imager (Perkin Elmer) and analyzed images in the Harmony 4.1 software and/or Columbus version 2.6.0 as previously described (Renner et al., [2020]), with adjustments to account for the individual properties of the staining and samples. […]

[6] = tested on: automated midbrain organoids (AMOs); experiment: Primary organoid viability screen (ATP-based CellTiter-Glo 3D); format: cell-based, human; conditions: approx. 100 μM, 48 or 96 h, two AMO lines
Description: We cultured AMOs for 47 days in our automated system as described above. On day 47, we exchanged the organoid medium to a minimal tox medium (TM, consisting of DMEM/F-12 with 1% N2 supplement and 1% penicillin/streptomycin/glutamine) to reduce possible interference from antioxidants in the B27 media supplement. The next day, we treated the AMOs with the compounds from the library at a concentration of 100 μM in TM with some deviations due to solubility (see Supplementary Table 1 for a complete list of compounds including their final concentrations in the screen). DMSO control samples contained 0.5% (v/v) DMSO, which is equivalent to the amount of solvent in the samples that received compound treatment. After 48 h of incubation with the compounds, we either directly processed the organoids for the 48-h time point or renewed the compounds in TM once to achieve 96 h of incubation. […] We recorded the luminescence immediately after the transfer using a Synergy Mx plate reader (BioTek). […]
In detail: All compounds including their controls were arrayed on a single 96-well plate (see Supplementary Table 1 for well positions), and replicated across three plates for a total of n = 3 replicates per condition (except AMO line 2 at 48 h n = 2). […] During our analysis, we first averaged the two technical replicates from the luminescence measurement in Microsoft Excel, yielding one averaged luminescence value for each well of the original 96-well AMO plates. Then, we normalized the luminescence detected in each well to the mean luminescence of the four DMSO controls of the same plate to get a relative organoid viability value. Normalization was performed separately for each plate to account for and correct for potential differences during the luminescence measurements. […] We further assessed the homogeneity of the AMOs by calculating the coefficient of variation (CV) for the relative viabilities of the DMSO controls (i.e., we divided the standard deviations by the corresponding means and averaged the resulting CV values for the DMSO controls). […]

| SMILES | Map2 content (general neurons) [4] | TH content (dopaminergic neurons) [4] | significant difference in reduction between TH and Map2 (dopaminergic neuron-specific toxicity) [5] | viability [3] | TH levels compared to Map2 levels [4] | also measured |
| --- | --- | --- | --- | --- | --- | --- |
| Cl.NCCc1cc(O)c(O)cc1O [6OHDA, 6-hydroxydopamine hydrochloride, reference compound] |  |  |  |  |  | IC50 ([1]; AMO line 1 cell line): 44.2 µM; IC50 ([1]; AMO line 2 cell line): 65 µM; IC50 ([2]; AMO line 1, 3D): 315 µM; IC50 ([2]; AMO line 2, 3D): 269 µM; toxicity in 3D AMOs compared with 2D-cultured dopaminergic neurons ([2]; both cell lines, 48 h, 0.01-1,000 μM, padj < 0.05): significantly stronger toxic effect in 2D than 3D |
| CC(=O)Oc1ccccc1C(=O)O [ASS, acetylsalicylic acid, reference compound] | no impact | no impact |  |  |  | overall toxicity in the dose-response experiments ([3]; 0.01-1,000 μM, viability, Map2 and TH readouts): no significant changes at any of the tested concentrations; also recorded: non-toxic across all tested concentrations |
| COc1ccc2cc3[n+](cc2c1OC)CCc1cc2c(cc1-3)OCO2 [BC, berberine chloride] | strongly reduced | strongly reduced | statistically significant difference in reduction between TH and Map2 | strongly reduced | significantly reduced TH levels compared to Map2 over a broad range of concentrations |  |
| Oc1c(Cl)cc(Cl)c(Cl)c1Cc1c(O)c(Cl)cc(Cl)c1Cl [HCP, hexachlorophene] | strongly reduced | strongly reduced |  | strongly reduced |  | toxicity in the primary screens [6]: highly toxic |
| CC(C)(c1cc(Br)c(O)c(Br)c1)c1cc(Br)c(O)c(Br)c1 [TBBPA, 3,3′,5,5′-tetrabromobisphenol A] | strongly reduced | strongly reduced | statistically significant difference in reduction between TH and Map2 | strongly reduced | significantly reduced TH levels compared to Map2 over a broad range of concentrations |  |
| [CH3][Hg][Cl] [methyl mercuric (II) chloride] |  |  | statistically significant difference in reduction between TH and Map2 |  |  |  |
| C=C(C)[C@H]1Cc2c(ccc3c2O[C@@H]2COc4cc(OC)c(OC)cc4[C@@H]2C3=O)O1 [rotenone, reference compound] |  |  |  |  | significantly reduced TH levels compared to Map2 over a broad range of concentrations |  |

Reference: PMC8321240, “Cell-Type-Specific High Throughput Toxicity Testing in Human Midbrain Organoids” (Frontiers in Molecular Neuroscience, 2021)
